Values after ≈ are worked out from the molar mass of the structure shown. Counter-ions that a name gives are not always drawn.
Columns and labels:
DNA gyrase = target: T1, DNA gyrase (Escherichia coli, UniProt P0AES4+P0AES6); assay: Inhibition of DNA gyrase activity (DNA gyrase supercoiling assay, relaxed pUC18 plasmid as substrate); type: biochemical, E. coli H560
T1 construct: supercoiling of relaxed pUC18
Method: A. Inhibition of DNA gyrase activity
The inhibition of DNA gyrase activity was measured using a DNA gyrase supercoiling assay according to R. Otter & N. Cozzarelli: Methods in Enzymology, Vol. 100, pp 171-180 (1983). DNA gyrase was isolated from E. coli H560, and relaxed pUC18 plasmid was used as substrate. The activities as regards inhibition of DNA gyrase activity, expressed as maximum non-effective concentration of the test compound (MNC in μg/ml) are compiled in the following Table 1: […]

E. coli B = assay: Antibacterial activity in vitro (agar dilution); type: cell-based; conditions: Escherichia coli, agar dilution (MuellerHinton agar), inoculum 10^4 CFU/spot, read-out: minimum inhibitory concentration (MIC)
P. aeruginosa 799/61 = assay: Antibacterial activity in vitro (agar dilution); type: cell-based; conditions: Pseudomonas aeruginosa, agar dilution (MuellerHinton agar), inoculum 10^4 CFU/spot, read-out: minimum inhibitory concentration (MIC)
S. aureus 25923 = assay: Antibacterial activity in vitro (agar dilution); type: cell-based; conditions: Staphylococcus aureus, agar dilution (MuellerHinton agar), inoculum 10^4 CFU/spot, read-out: minimum inhibitory concentration (MIC)
S. aureus Smith = assay: Antibacterial activity in vitro (agar dilution); type: cell-based; conditions: Staphylococcus aureus, agar dilution (MuellerHinton agar), inoculum 10^4 CFU/spot, read-out: minimum inhibitory concentration (MIC)
S. epidermidis 16-2 = assay: Antibacterial activity in vitro (agar dilution); type: cell-based; conditions: Staphylococcus epidermidis, 162, agar dilution (MuellerHinton agar), inoculum 10^4 CFU/spot, read-out: minimum inhibitory concentration (MIC)
S. pyogenes 15 = assay: Antibacterial activity in vitro (agar dilution); type: cell-based; conditions: Streptococcus pyogenes, agar dilution (MuellerHinton agar), inoculum 10^4 CFU/spot, read-out: minimum inhibitory concentration (MIC)
S. faecalis 6 = assay: Antibacterial activity in vitro (agar dilution); type: cell-based; conditions: Enterococcus faecalis, agar dilution (MuellerHinton agar), inoculum 10^4 CFU/spot, read-out: minimum inhibitory concentration (MIC)

T1 sequence (P0AES4 whole entry, one chain of several): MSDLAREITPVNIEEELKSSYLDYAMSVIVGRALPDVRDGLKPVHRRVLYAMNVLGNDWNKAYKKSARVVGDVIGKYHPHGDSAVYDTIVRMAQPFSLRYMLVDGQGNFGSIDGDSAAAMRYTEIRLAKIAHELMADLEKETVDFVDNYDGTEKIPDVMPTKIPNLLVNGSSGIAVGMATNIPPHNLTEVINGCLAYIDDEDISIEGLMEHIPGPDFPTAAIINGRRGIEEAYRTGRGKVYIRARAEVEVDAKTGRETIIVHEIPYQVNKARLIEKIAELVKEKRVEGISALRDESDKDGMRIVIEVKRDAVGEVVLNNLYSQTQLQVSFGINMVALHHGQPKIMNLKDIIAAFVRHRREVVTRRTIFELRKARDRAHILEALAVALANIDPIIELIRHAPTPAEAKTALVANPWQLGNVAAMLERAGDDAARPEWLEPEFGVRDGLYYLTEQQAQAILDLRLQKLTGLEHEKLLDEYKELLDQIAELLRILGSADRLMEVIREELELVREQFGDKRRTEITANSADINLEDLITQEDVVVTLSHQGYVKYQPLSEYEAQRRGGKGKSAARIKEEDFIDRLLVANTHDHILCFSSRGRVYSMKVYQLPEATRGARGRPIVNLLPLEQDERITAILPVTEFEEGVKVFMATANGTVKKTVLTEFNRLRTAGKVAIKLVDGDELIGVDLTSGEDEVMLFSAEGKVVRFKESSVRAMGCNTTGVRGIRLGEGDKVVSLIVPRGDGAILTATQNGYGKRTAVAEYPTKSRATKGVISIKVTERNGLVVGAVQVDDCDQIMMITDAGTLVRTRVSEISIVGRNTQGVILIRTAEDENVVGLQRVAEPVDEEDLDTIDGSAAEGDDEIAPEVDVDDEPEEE

Compound | maximum non-effective concentration of the test compound (MNC) (DNA gyrase) | MIC (E. coli B) | MIC (P. aeruginosa 799/61) | MIC (S. aureus 25923) | MIC (S. aureus Smith) | MIC (S. epidermidis 16-2) | MIC (S. pyogenes 15) | MIC (S. faecalis 6)
COC(=O)[C@@H]1CSCc2c(O)cc(OC)c(C)c2C(=O)OCCCCC(=S)N1 [Example 23, (R)-16-hydroxy-14-methoxy-13-methyl-12-oxo-6-thioxo-1,3,4,5,6,7,8,9,10,12-decahydro-11,2,5-benzoxathiaazacyclotetradecine-4-carboxylic acid methyl ester] | 0.01 µg/mL | 16 µg/mL (≈ 37.4 µM) | 8 µg/mL (≈ 18.7 µM) | 0.5 µg/mL (≈ 1.17 µM) | 0.25 µg/mL (≈ 0.585 µM) | 0.12 µg/mL (≈ 0.281 µM) | 2 µg/mL (≈ 4.68 µM) | 1 µg/mL (≈ 2.34 µM)
COc1cc(O)c(CSC[C@H](NC(C)=O)c2nc(C)no2)c(C#N)c1C [Example 97, (R)-N-[2-(2-cyano-6-hydroxy-4-methoxy-3-methyl-benzylsulfanyl]-1-(3-methyl-1,2,4-oxadiazol-5-yl)-ethyl]-acetamide] | 0.4 µg/mL | 64 µg/mL (≈ 170 µM) | 64 µg/mL (≈ 170 µM) | 16 µg/mL (≈ 42.5 µM) | 8 µg/mL (≈ 21.3 µM) | 1 µg/mL (≈ 2.66 µM) | 16 µg/mL (≈ 42.5 µM) | 16 µg/mL (≈ 42.5 µM)
COc1cc(O)c2c(c1C)C(=O)OCCCCC(=O)N[C@H](c1nc(CNC(C)C)no1)CSC2 [Example 132, (R)-16-hydroxy-4-[3-(isopropylamino)-methyl-1,2,4-oxadiazol-5-yl]-14-methoxy-13-methyl-1,3,4,5,6,7,8,9,10,12-decahydro-11,2,5-benzoxathiaazacyclotetradecin-6,12-dione hydrochloride] |  | 64 µg/mL | > 64 µg/mL | 4 µg/mL | 2 µg/mL | 0.5 µg/mL | 4 µg/mL | 4 µg/mL
COc1cc(O)c2c(c1C)C(=O)O[C@H](CO)CCC(=S)N[C@H](c1nc(C)no1)CSC2 [Example 16, (4R,9S)-15-hydroxy-9-hydroxymethyl-13-methoxy-12-methyl-4-(3-methyl-1,2,4-oxadiazol-5-yl)-6-thioxo-3,4,5,6,7,8,9,11-octahydro-1H-10,2,5-benzoxathiaazacyclotridecine-11-one] | 0.01 µg/mL |  |  |  |  |  |  | 
COc1cc(O)c2c(c1C)C(=O)O[C@H](CO)CCC(=S)N[C@H](C(=O)NC1CCCC1)CSC2 [Example 14, (4R,9S)-15-hydroxy-9-hydroxymethyl-13-methoxy-12-methyl-11-oxo-6-thioxo-3,4,5,6,7,8,9,11-octahydro-1H-10,2,5-benzoxathiaazacyclotridecine-4-carboxylic acid cyclopentylamide] | 0.2 µg/mL | 64 µg/mL (≈ 129 µM) | 8 µg/mL (≈ 16.1 µM) | 16 µg/mL (≈ 32.2 µM) | 8 µg/mL (≈ 16.1 µM) | 1 µg/mL (≈ 2.01 µM) | 4 µg/mL (≈ 8.05 µM) | 4 µg/mL (≈ 8.05 µM)
CCCNC(=O)[C@@H]1CSCc2c(O)cc(OC)c(C)c2C(=O)OCCCCC(=S)N1 [Example 26, (R)-16-hydroxy-14-methoxy-13-methyl-12-oxo-6-thioxo-1,3,4,5,6,7,8,9,10,12-decahydro-11,2,5-benzoxathiaazacyclotetradecine-4-carboxylic acid propylamide] | 0.04 µg/mL | > 64 µg/mL | 32 µg/mL (≈ 70.4 µM) | 2 µg/mL (≈ 4.4 µM) | 0.5 µg/mL (≈ 1.1 µM) | 0.12 µg/mL (≈ 0.264 µM) | 4 µg/mL (≈ 8.8 µM) | 2 µg/mL (≈ 4.4 µM)
COC(=O)c1c(Cl)c(OC)cc(O)c1CSC[C@H](NC(C)=S)c1nc(C)no1 [Example 92, (R)-2-chloro-5-hydroxy-3-methoxy-6-[2-(3-methyl-1,2,4-oxadiazol-5-yl)-2-thioacetylamino-ethylsulfanylmethyl]-benzoic acid methyl ester] | 0.04 µg/mL | > 64 µg/mL | 64 µg/mL (≈ 144 µM) | 4 µg/mL (≈ 8.97 µM) | 2 µg/mL (≈ 4.48 µM) | 1 µg/mL (≈ 2.24 µM) | 8 µg/mL (≈ 17.9 µM) | 8 µg/mL (≈ 17.9 µM)
COc1cc(O)c2c(c1C)C(=O)OCCCCC(=O)N[C@H](c1nc(C)no1)C[S@@+]([O-])C2 [Example 111, (2S,4R)-16-hydroxy-14-methoxy-13-methyl-4-(3-methyl-1,2,4-oxadiazol-5-yl)-2-oxo-1,3,4,5,6,7,8,9,10,12-benzoxathiaazacyclotetradecin-6,12-dione] | 0.1 µg/mL |  |  |  |  |  |  | 
COC(=O)[C@@H]1CSCc2c(O)cc(OC)c(C)c2C(=O)OC[C@H](O)CCC(=S)N1 [Example 32, (4R,9R)-9,16-dihydroxy-14-methoxy-13-methyl-12-oxo-6-thioxo-1,3,4,5,6,7,8,9,10,12-decahydro-11,2,5-benzoxathiaazacyclotetradecine-4-carboxylic acid methyl ester] | 0.01 µg/mL | > 64 µg/mL | 4 µg/mL (≈ 9.02 µM) | 1 µg/mL (≈ 2.25 µM) | 0.5 µg/mL (≈ 1.13 µM) | 0.25 µg/mL (≈ 0.564 µM) | 2 µg/mL (≈ 4.51 µM) | 2 µg/mL (≈ 4.51 µM)
COC(=O)c1c(C)c(OC)cc(O)c1CSC[C@H](Nc1nc(-c2ccccc2)ns1)c1nc(C)no1 [Example 175, (R)-3-hydroxy-5-methoxy-6-methyl-2-[2-(3-methyl-1,2,4-oxadiazol-5-yl)-2-(3-phenyl-1,2,4-thiadiazol-5-ylamino)-ethylsulfanylmethyl]-benzoic acid methyl ester] |  | > 64 µg/mL | > 64 µg/mL | 4 µg/mL (≈ 7.58 µM) | 1 µg/mL (≈ 1.9 µM) | 1 µg/mL (≈ 1.9 µM) | 4 µg/mL (≈ 7.58 µM) | 4 µg/mL (≈ 7.58 µM)
C#CCNC(=O)[C@@H]1CSCc2c(O)cc(OC)c(C)c2C(=O)OCCCCC(=S)N1 [Example 27, (R)-16-hydroxy-14-methoxy-13-methyl-12-oxo-6-thioxo-1,3,4,5,6,7,8,9,10,12-decahydro-11,2,5benzoxathiaazacyclotetradecine-4-carboxylic acid prop-2-ynylamide] | 0.01 µg/mL | 64 µg/mL (≈ 142 µM) | 2 µg/mL (≈ 4.44 µM) | 1 µg/mL (≈ 2.22 µM) | 0.5 µg/mL (≈ 1.11 µM) | 0.12 µg/mL (≈ 0.266 µM) | 4 µg/mL (≈ 8.88 µM) | 0.5 µg/mL (≈ 1.11 µM)
COc1cc(O)c2c(c1C)C(=O)OCCCCC(=S)N[C@H](C(N)=O)CSC2 [Example 69, (R)-16-hydroxy-14-methoxy-13-methyl-12-oxo-6-thioxo-1,3,4,5,6,7,8,9,10,12-decahydro-11,2,5-benzoxathiaazacyclotetradecine-4-carboxylic acid amide] | 0.04 µg/mL | > 64 µg/mL | > 64 µg/mL | 4 µg/mL (≈ 9.7 µM) | 2 µg/mL (≈ 4.85 µM) | 0.25 µg/mL (≈ 0.606 µM) | 2 µg/mL (≈ 4.85 µM) | 2 µg/mL (≈ 4.85 µM)
COC(=O)c1c(Br)c(OC)cc(O)c1CSC[C@H](NC(C)=S)c1nc(C)no1 [Example 71, (R)-2-bromo-5-hydroxy-3-methoxy-6-[2-(3-methyl-1,2,4-oxadiazol-5-yl)-2-thioacetylamino-ethylsulfanylmethyl]-benzoic acid methyl ester] | 0.5 µg/mL | > 64 µg/mL | 64 µg/mL (≈ 131 µM) | 2 µg/mL (≈ 4.08 µM) | 1 µg/mL (≈ 2.04 µM) | 0.5 µg/mL (≈ 1.02 µM) | 4 µg/mL (≈ 8.16 µM) | 4 µg/mL (≈ 8.16 µM)
COC(=O)[C@@H]1CSCc2c(O)cc(OC)c(C)c2C(=O)O[C@H](COC(C)=O)CCC(=S)N1 [Example 11, (4R,9S)-9-acetoxymethyl-15-hydroxy-13-methoxy-12-methyl-11-oxo-6-thioxo-3,4,5,6,7,8,9,11-octahydro-1H-10,2,5-benzoxathiaazacyclotridecine-4-carboxylic acid methyl ester] | 0.02 µg/mL | > 64 µg/mL | 8 µg/mL (≈ 16.5 µM) | 0.5 µg/mL (≈ 1.03 µM) | 0.5 µg/mL (≈ 1.03 µM) | 0.12 µg/mL (≈ 0.247 µM) | 2 µg/mL (≈ 4.12 µM) | 2 µg/mL (≈ 4.12 µM)
COc1cc(O)c2c(c1C)C(=O)OCCCCC(=S)N[C@H](c1nc(CNC(C)=O)no1)CSC2 [Example 142, (R)-N-[5-(16-hydroxy-14-methoxy-13-methyl-12-oxo-6-thioxo-1,3,4,5,6,7,8,9,10,12-decahydro-11,2,5-benzoxathiaazacyclotetradecin-4-yl)-1,2,4-oxadiazol-3-ylmethyl]-acetamide] |  | 64 µg/mL (≈ 126 µM) | > 64 µg/mL | 2 µg/mL (≈ 3.93 µM) | 1 µg/mL (≈ 1.97 µM) | 0.12 µg/mL (≈ 0.236 µM) | 1 µg/mL (≈ 1.97 µM) | 1 µg/mL (≈ 1.97 µM)
COC(=O)c1c(Br)c(OC)cc(O)c1CSC[C@H](Nc1nc(-c2ccc(C(=O)O)cc2)cs1)c1nc(C)no1 [Example 171] |  | > 64 µg/mL | > 64 µg/mL | 8 µg/mL (≈ 12.6 µM) | 4 µg/mL (≈ 6.29 µM) | 1 µg/mL (≈ 1.57 µM) | 2 µg/mL (≈ 3.15 µM) | 4 µg/mL (≈ 6.29 µM)
COc1cc(O)c2c(c1C)C(=O)OCCCCC(=S)N[C@H](c1nc(CN)no1)CSC2.Cl [Example 130, (R)-4-(3-aminomethyl-1,2,4-oxadiazol-5-yl)-16-hydroxy-14-methoxy-13-methyl-6-thioxo-1,3,4,5,6,7,8,9,10,12-decahydro-11,2,5-benzoxathiaazacyclotetradecin-12-one hydrochloride] |  | 32 µg/mL | 64 µg/mL | 0.5 µg/mL | 0.25 µg/mL | 0.12 µg/mL | 0.5 µg/mL | 0.5 µg/mL

Reference: patent publication US5594135A, “Tricyclic DNA gyrase inhibitors” (Hoffmann-La Roche Inc., priority 1994, dated 1997)
